Experimental data taken from the supplement of paper PMC11451515.

System: P12-Ichikawa
Experiment: cell viability relative to DMSO control; higher = less cytotoxic
Conditions: 48 h
Summary of the method: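 Leukemia cells (NOMO1 or SEM, 500 cells/well; P12-Ichikawa, 1000 cells/well) were seeded in 5 μl in 1536-well plates after at least four passages of adaptation to each medium. They received library compounds in DMSO by pin dosing, 11 threefold points from 47 μM to 0.79 nM. Luminescence with CellTiter-Glo One was read after 48 h at 37°C. Viability is stated per plate relative to DMSO wells, with cell-free wells as background.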

[1] = HPLM + 10% dialyzed FBS, 0.000781 µM
[2] = HPLM + 10% dialyzed FBS, 0.00234 µM
[3] = HPLM + 10% dialyzed FBS, 0.00702 µM
[4] = HPLM + 10% dialyzed FBS, 0.0211 µM
[5] = HPLM + 10% dialyzed FBS, 0.0632 µM
[6] = HPLM + 10% dialyzed FBS, 0.19 µM
[7] = HPLM + 10% dialyzed FBS, 0.569 µM
[8] = HPLM + 10% dialyzed FBS, 1.71 µM
[9] = HPLM + 10% dialyzed FBS, 5.12 µM
[10] = HPLM + 10% dialyzed FBS, 15.4 µM
[11] = HPLM + 10% dialyzed FBS, 46.1 µM
[12] = RPMI 5 mM glucose + 10% FBS, 0.000781 µM
[13] = RPMI 5 mM glucose + 10% FBS, 0.00234 µM
[14] = RPMI 5 mM glucose + 10% FBS, 0.00702 µM
[15] = RPMI 5 mM glucose + 10% FBS, 0.0211 µM
[16] = RPMI 5 mM glucose + 10% FBS, 0.0632 µM
[17] = RPMI 5 mM glucose + 10% FBS, 0.19 µM
[18] = RPMI 5 mM glucose + 10% FBS, 0.569 µM
[19] = RPMI 5 mM glucose + 10% FBS, 1.71 µM
[20] = RPMI 5 mM glucose + 10% FBS, 5.12 µM
[21] = RPMI 5 mM glucose + 10% FBS, 15.4 µM
[22] = RPMI 5 mM glucose + 10% FBS, 46.1 µM
[23] = RPMI 5 mM glucose + 10% dialyzed FBS, 0.000781 µM
[24] = RPMI 5 mM glucose + 10% dialyzed FBS, 0.00234 µM
[25] = RPMI 5 mM glucose + 10% dialyzed FBS, 0.00702 µM
[26] = RPMI 5 mM glucose + 10% dialyzed FBS, 0.0211 µM
[27] = RPMI 5 mM glucose + 10% dialyzed FBS, 0.0632 µM
[28] = RPMI 5 mM glucose + 10% dialyzed FBS, 0.19 µM
[29] = RPMI 5 mM glucose + 10% dialyzed FBS, 0.569 µM
[30] = RPMI 5 mM glucose + 10% dialyzed FBS, 1.71 µM
[31] = RPMI 5 mM glucose + 10% dialyzed FBS, 5.12 µM
[32] = RPMI 5 mM glucose + 10% dialyzed FBS, 15.4 µM
[33] = RPMI 5 mM glucose + 10% dialyzed FBS, 46.1 µM

| SMILES | cell viability [1] [%] | cell viability [2] [%] | cell viability [3] [%] | cell viability [4] [%] | cell viability [5] [%] | cell viability [6] [%] | cell viability [7] [%] | cell viability [8] [%] | cell viability [9] [%] | cell viability [10] [%] | cell viability [11] [%] | cell viability [12] [%] | cell viability [13] [%] | cell viability [14] [%] | cell viability [15] [%] | cell viability [16] [%] | cell viability [17] [%] | cell viability [18] [%] | cell viability [19] [%] | cell viability [20] [%] | cell viability [21] [%] | cell viability [22] [%] | cell viability [23] [%] | cell viability [24] [%] | cell viability [25] [%] | cell viability [26] [%] | cell viability [27] [%] | cell viability [28] [%] | cell viability [29] [%] | cell viability [30] [%] | cell viability [31] [%] | cell viability [32] [%] | cell viability [33] [%] |
| --- | --- | --- | --- | --- | --- | --- | --- | --- | --- | --- | --- | --- | --- | --- | --- | --- | --- | --- | --- | --- | --- | --- | --- | --- | --- | --- | --- | --- | --- | --- | --- | --- | --- |
| O=C1Nc2ccccc2/C1=C1\Nc2ccccc2C1=O | 106 | 106 | 109 | 102 | 104 | 101 | 104 | 103 | 94.9 | 104 | 97.9 | 101 | 111 | 103 | 105 | 110 | 108 | 104 | 104 | 95.9 | 99.7 | 98 | 99.3 | 102 | 105 | 91.2 | 104 | 97.1 | 106 | 94.9 | 93.1 | 102 | 83.4 |
| COc1cc(N2CCC(O)CC2)ccc1Nc1cc(Nc2ccccc2[S+](=O)([O-])C(C)C)c2cc[nH]c2n1 | 91.6 | 88.2 | 86 | 91.3 | 93 | 85.3 | 78.4 | 85.1 | 84.4 | 84.4 | 80.2 | 78.4 | 85.5 | 85.2 | 85.4 | 87.2 | 88 | 81.3 | 81.8 | 80.8 | 77.4 | 66.9 | 85 | 85.2 | 86.5 | 83.7 | 87.1 | 80.7 | 85 | 83.7 | 85.6 | 78.4 | 77.9 |
| CCCCCCCCCCCC(CC1OC(=O)C1CCCCCC)OC(=O)C(CC(C)C)NC=O (stereo not given) | 98.6 | 110 | 110 | 105 | 111 | 107 | 119 | 107 | 105 | 84.2 | 3.42 | 105 | 117 | 114 | 120 | 118 | 114 | 114 | 114 | 103 | 85.8 | 10.6 | 101 | 107 | 103 | 108 | 117 | 112 | 116 | 112 | 99.3 | 87.2 | 7.97 |
| Cc1ccc(NC(=O)C2(c3ccc4c(c3)OC(F)(F)O4)CC2)nc1-c1cccc(C(=O)O)c1 | 101 | 111 | 101 | 108 | 93.4 | 58.4 | 29.4 | 19.5 | 17.2 | 10.9 | 6.66 | 106 | 98.6 | 95.5 | 101 | 85.3 | 42.2 | 18.7 | 16.1 | 11.1 | 9.88 | 6.85 | 102 | 103 | 97 | 96.1 | 95.4 | 44.5 | 30.4 | 20.8 | 9.02 | 8.13 | 6.13 |
| CN1CCCN(C(=O)c2cccc(-c3ccc(/C=C4/C(=O)Nc5ccc(Cl)cc54)o3)c2)CC1 | 106 | 119 | 114 | 116 | 114 | 120 | 106 | 92.3 | 76.9 | 76.9 | 59.2 | 117 | 108 | 111 | 117 | 115 | 110 | 102 | 85.8 | 54.7 | 20.1 | 3.03 | 103 | 107 | 117 | 114 | 113 | 108 | 111 | 90.7 | 64.3 | 53 | 5.68 |
| COc1cc2ncnc(-n3nc(-c4ccccn4)nc3N)c2cc1OC | 93.6 | 97.9 | 102 | 99.7 | 95.9 | 103 | 105 | 104 | 88.5 | 96 | 0.508 | 89.2 | 100 | 98.6 | 101 | 98 | 105 | 107 | 102 | 78 | 82.7 | 0.293 | 83.8 | 92.6 | 90 | 81.6 | 93.2 | 107 | 96.2 | 101 | 82.6 | 82.9 | 0.35 |
| O=C(NC1CCNCC1)c1n[nH]cc1NC(=O)c1c(Cl)cccc1Cl | 106 | 111 | 117 | 111 | 115 | 111 | 112 | 54.1 | 11.6 | 12.2 | 9.17 | 114 | 115 | 112 | 109 | 113 | 121 | 111 | 50.9 | 12.9 | 12.1 | 7.33 | 114 | 112 | 109 | 115 | 116 | 112 | 103 | 79.1 | 13.7 | 13.8 | 10.1 |
| COc1cc(N2CCC(C(N)=O)CC2)ccc1Nc1nc(N)c(Cl)c(Nc2ccccc2[S+](=O)([O-])C(C)C)n1 | 88.6 | 97.4 | 102 | 95.2 | 111 | 106 | 108 | 104 | 96.9 | 84.1 | 3.45 | 81.9 | 102 | 101 | 107 | 103 | 98.1 | 99.9 | 95.9 | 77.8 | 64.6 | 2.33 | 91.3 | 104 | 98.8 | 94.7 | 103 | 97.9 | 100 | 88 | 74.9 | 54.9 | 4.65 |
| CN(C)Cc1ccc(-c2nc3cccc4c3n2CCNC4=O)cc1 | 90.5 | 100 | 105 | 103 | 109 | 102 | 112 | 109 | 108 | 114 | 110 | 92.8 | 96.3 | 94.7 | 108 | 108 | 105 | 106 | 107 | 109 | 109 | 106 | 90.2 | 99.1 | 101 | 109 | 107 | 111 | 107 | 108 | 105 | 102 | 112 |
| CN(C)CCOC(c1ccccc1)c1ccccc1 | 104 | 107 | 105 | 103 | 111 | 111 | 112 | 103 | 109 | 111 | 82.8 | 96.1 | 105 | 99.4 | 112 | 110 | 105 | 105 | 105 | 100 | 110 | 85.5 | 94 | 102 | 104 | 104 | 112 | 104 | 105 | 101 | 111 | 96.8 | 83 |
| Cc1ccc(NC(=O)c2ccc(CN3CCN(C)CC3)cc2)cc1Nc1nccc(-c2cccnc2)n1 | 93.8 | 95.7 | 105 | 97.9 | 113 | 103 | 112 | 109 | 110 | 109 | 92.7 | 98.2 | 107 | 101 | 96.5 | 115 | 113 | 114 | 109 | 103 | 105 | 100 | 102 | 107 | 108 | 111 | 109 | 113 | 115 | 104 | 97.6 | 112 | 106 |
| CCCCN(CCCC)CCC(O)c1cc2c(Cl)cc(Cl)cc2c2cc(C(F)(F)F)ccc12 (stereo not given) | 120 | 122 | 118 | 120 | 130 | 131 | 130 | 131 | 131 | 124 | 121 | 115 | 126 | 119 | 118 | 135 | 147 | 141 | 150 | 132 | 105 | 88.3 | 108 | 110 | 114 | 117 | 120 | 125 | 130 | 138 | 131 | 141 | 105 |
| Fc1ccc(C(c2ccc(F)cc2)N2CCN(C/C=C/c3ccccc3)CC2)cc1 | 110 | 121 | 111 | 109 | 109 | 114 | 108 | 108 | 103 | 99.1 | 96.5 | 118 | 112 | 109 | 121 | 116 | 119 | 112 | 107 | 110 | 106 | 104 | 113 | 104 | 121 | 109 | 102 | 110 | 114 | 106 | 104 | 98 | 95.2 |
| COc1cc2c(N3CCN(C(=O)Nc4ccc(OC(C)C)cc4)CC3)ncnc2cc1OCCCN1CCCCC1 | 88.6 | 92.6 | 87.4 | 97.5 | 91.3 | 91.6 | 92.3 | 90 | 86 | 58 | 43.4 | 84.3 | 74.1 | 80 | 92.5 | 86.3 | 72.8 | 78.9 | 80.1 | 77.4 | 42.9 | 48.1 | 79.5 | 86.9 | 84.7 | 83 | 81.1 | 82.2 | 83.6 | 79 | 84.6 | 38.1 | 56 |
| O=C(NC1CCOCC1)c1ccc(-c2cc(-c3c[nH]nc3-c3ccccn3)ccn2)cc1 | 104 | 103 | 110 | 104 | 111 | 108 | 109 | 96.6 | 98.3 | 92.4 | 104 | 104 | 109 | 110 | 109 | 109 | 94.1 | 98.4 | 85.7 | 99.9 | 97.8 | 99.9 | 114 | 109 | 103 | 105 | 103 | 102 | 96 | 105 | 88.4 | 97.5 | 89.8 |
